Laboratory results taken from paper PMC4700278, “Molecular and Biochemical Analysis of the Estrogenic and Proliferative Properties of Vitamin E Compounds” (Frontiers in Oncology, 2016).

Assays:
MCF-7 (ER(+)) cells = experiment: Cell proliferation assay (sulforhodamine B); type: cell-based, human; conditions: 500 μM δ-TP or δ-TT; 30 μM lovastatin; 6-day period
Experimental: MCF-7 (ER(+)), T47D (ER(+)), and MDA-MB-231 (ER(−)) cell lines were from ATCC. Cell lines were maintained at 37°C in a humidified incubator in a 5% CO2-enriched atmosphere in T-75 flasks. […] Cells were grown for 24 h before treatment in phenol red-free medium containing 5% DCC-FCS. Cells were seeded into 96-well plates at 2000 cells/well. Treatment media (150 μl/well) was added on the following day and replaced at 48-h intervals until the end of the experiment. Cell density was measured via the sulforhodamine B method ([43]) after 0, 2, 4, 6, and 8 days. The absorbance of SRB was measured directly at 490 nm in the 96-well plates using a multiskan® multisoft reader from Labsystem.

HMG-CoA reductase (HMGR) = molecular target: T1, HMG-CoA reductase (HMGR) (Homo sapiens, UniProt P04035); experiment: HMG-CoA reductase activity in microsomal fraction of treated cells; type: cell-based; conditions: MCF-7, T47D and MDA-MB-231 cells treated with 500 μM; compared to solvent vehicle-treated cells
T1 construct: endogenous in cells; host or cells: MCF-7, T47D, MDA-MB-231 (microsomal fraction)
T1 sequence (P04035 1-888): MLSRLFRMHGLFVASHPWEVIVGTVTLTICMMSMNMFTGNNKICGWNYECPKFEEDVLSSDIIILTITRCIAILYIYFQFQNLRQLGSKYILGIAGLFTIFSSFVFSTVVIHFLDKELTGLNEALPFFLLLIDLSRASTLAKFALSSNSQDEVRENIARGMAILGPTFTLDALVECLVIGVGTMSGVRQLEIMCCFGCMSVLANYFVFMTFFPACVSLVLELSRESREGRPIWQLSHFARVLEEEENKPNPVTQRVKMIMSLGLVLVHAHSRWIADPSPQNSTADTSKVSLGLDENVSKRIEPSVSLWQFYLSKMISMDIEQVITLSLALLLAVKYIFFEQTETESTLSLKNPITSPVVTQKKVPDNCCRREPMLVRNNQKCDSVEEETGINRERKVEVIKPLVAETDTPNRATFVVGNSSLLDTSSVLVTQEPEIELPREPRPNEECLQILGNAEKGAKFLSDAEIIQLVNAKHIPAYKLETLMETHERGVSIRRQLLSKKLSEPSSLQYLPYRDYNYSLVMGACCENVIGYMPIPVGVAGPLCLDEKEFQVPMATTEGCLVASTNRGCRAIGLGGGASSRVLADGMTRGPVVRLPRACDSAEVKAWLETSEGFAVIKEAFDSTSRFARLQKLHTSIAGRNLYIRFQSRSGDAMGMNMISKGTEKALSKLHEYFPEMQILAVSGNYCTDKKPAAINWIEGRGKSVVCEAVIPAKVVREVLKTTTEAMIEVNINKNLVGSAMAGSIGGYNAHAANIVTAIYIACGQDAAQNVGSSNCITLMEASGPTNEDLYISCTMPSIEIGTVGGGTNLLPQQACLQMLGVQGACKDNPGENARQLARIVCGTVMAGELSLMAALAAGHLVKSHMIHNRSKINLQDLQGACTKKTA
Experimental: Figure 4 Effect of tocol on ER(+) and ER(−) BC cell proliferation and HMG-CoA reductase activity. (A) Effect of δ-tocols on estrogen and non-estrogen-regulated growth of MCF-7, T47D, and MDA-MB-231 cells. […] Cells were also treated with 30 μM lovastatin (Lova) in the presence or absence of 5 mM M, as described in Section “Materials and Methods.” Values are shown as means and vertical bars represent SEM. The data were analyzed by two-way ANOVA, followed by Bonferroni post hoc test. ***P < 0.001, **P < 0.01, and *P < 0.05 in comparison with control or bare-linked specific control. Ns: not significant. (B) Effect of δ-TT on hydroxymethylglutaryl coenzyme A reductase (HMGR) activity in MCF-7, T47D, and MDA-MB-231 cells. […] Data shown are the mean values ± SEM from three independent experiments performed in triplicate.

ERα = molecular target: T2, ERα (Homo sapiens, UniProt P03372); experiment: Estrogen receptor-binding assay, competition with [3H]-17β-estradiol; design: expressed in transfected cells; host or cells: Cos-7; conditions: extracts of cos-7 cells expressing human ERα; 2 nM [3H]-E2; tocols 1 μM to 1 mM; N.M. = not measurable
T2 sequence (P03372 1-595): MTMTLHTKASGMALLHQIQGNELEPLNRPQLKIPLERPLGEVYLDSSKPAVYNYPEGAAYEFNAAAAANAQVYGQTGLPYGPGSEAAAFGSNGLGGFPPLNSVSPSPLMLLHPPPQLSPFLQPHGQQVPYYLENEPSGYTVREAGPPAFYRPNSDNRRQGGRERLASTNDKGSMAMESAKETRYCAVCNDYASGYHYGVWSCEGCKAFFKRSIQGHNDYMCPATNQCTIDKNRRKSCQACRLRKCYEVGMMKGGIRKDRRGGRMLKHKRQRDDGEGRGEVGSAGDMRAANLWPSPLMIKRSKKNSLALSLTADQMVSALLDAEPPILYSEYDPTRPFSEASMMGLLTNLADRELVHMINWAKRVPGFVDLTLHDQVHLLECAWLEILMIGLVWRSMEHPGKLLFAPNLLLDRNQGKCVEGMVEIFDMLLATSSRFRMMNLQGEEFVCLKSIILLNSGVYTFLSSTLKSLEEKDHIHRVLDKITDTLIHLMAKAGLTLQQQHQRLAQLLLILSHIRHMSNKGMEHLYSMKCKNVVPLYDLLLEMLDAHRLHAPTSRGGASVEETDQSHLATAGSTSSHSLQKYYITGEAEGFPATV

Row | effect on HMGR activity (HMG-CoA reductase (HMGR)) | IC50 (ERα) [µM] | SMILES | effect on MCF-7 cell proliferation (MCF-7 (ER(+)) cells)
1 | inhibition of HMGR activity | 96 ± 6 | CC(C)=CCC/C(C)=C/CC/C(C)=C/CC[C@]1(C)CCc2cc(O)cc(C)c2O1 [δ-TT, δ-tocotrienol] | inhibited the proliferation
2 | not | 118 ± 15 | Cc1cc(O)cc2c1OC(C)(CCCC(C)CCCC(C)CCCC(C)C)CC2 (stereo not drawn) [δ-TP, δ-tocopherol] | significant stimulation
